Converted amounts (≈) assume the structure as drawn. The source made the active and inactive calls. No cut-off for these calls is given here.
Tests used:
Format in all cases: functional
Staphylococcus aureus [1] = assay: Antibacterial activity against Staphylococcus aureus ATCC 6538 measured after overnight incubation
Escherichia coli [2] = assay: Antibacterial activity against Escherichia coli clinical isolates measured after overnight incubation
Pseudomonas aeruginosa [3] = assay: Antibacterial activity against Pseudomonas aeruginosa clinical isolates measured after overnight incubation
Klebsiella pneumoniae = assay: Antibacterial activity against Klebsiella pneumoniae ATCC 1705 measured after overnight incubation; settings: ATCC BAA-1705
Escherichia coli [4] = assay: Antibacterial activity against Escherichia coli ATCC 25922 measured after overnight incubation
Bacillus spizizenii = assay: Antibacterial activity against Bacillus subtilis ATCC 6633 measured after overnight incubation
Pseudomonas aeruginosa [5] = assay: Antibacterial activity against Pseudomonas aeruginosa ATCC 15442 measured after overnight incubation
Staphylococcus aureus [6] = assay: Antibacterial activity against methicillin-resistant Staphylococcus aureus clinical isolates measured after overnight incubation
Streptococcus pyogenes = assay: Antibacterial activity against Streptococcus hemolyticus clinical isolates measured after overnight incubation
[7] = system: Staphylococcus epidermidis; assay: Antibacterial activity against Staphylococcus epidermidis
Escherichia coli [8] = assay: Antibacterial activity against Escherichia coli
Staphylococcus aureus [9] = assay: Antibacterial activity against Staphylococcus aureus

| Compound | MIC (Staphylococcus aureus [1]) | MIC (Escherichia coli [2]) | MIC (Pseudomonas aeruginosa [3]) | MIC (Klebsiella pneumoniae) | MIC (Escherichia coli [4]; read-out: MIC) [µM] | MIC (Bacillus spizizenii) | MIC (Pseudomonas aeruginosa [5]; read-out: MIC) [µM] | MIC (Staphylococcus aureus [6]) [µM] | MIC (Escherichia coli [4]) | MIC (Pseudomonas aeruginosa [5]) | MIC (Streptococcus pyogenes) | MIC50 [7] [µg/mL] | MIC50 (Escherichia coli [8]) [µg/mL] | MIC50 (Staphylococcus aureus [9]) [µg/mL] |
| --- | --- | --- | --- | --- | --- | --- | --- | --- | --- | --- | --- | --- | --- | --- |
| O=C(O)CC1(CNCCN2CCN(c3cc4c(cc3F)c(=O)c(C(=O)O)cn4C3CC3)CC2)CCCCC1 | 30.2 µM | 3.7 µM | 3.7 µM | 7.5 µM (≈ 3.96 µg/mL) | 7.5 (≈ 3.96 µg/mL) | 30.2 µM | 15.1 (≈ 7.98 µg/mL) | 30.2 (≈ 16 µg/mL) |  |  |  |  |  |  |
| O=C(O)c1ccc(NCN2CCNCC2)cc1 | 272 µM |  |  | 1090 µM (≈ 256 µg/mL) |  | 272 µM |  |  | 1090 µM (≈ 256 µg/mL) | 1090 µM (≈ 256 µg/mL) |  |  |  |  |
| Nc1ccc(S(N)(=O)=O)cc1 | inactive |  |  |  |  | inactive |  |  | inactive | inactive |  |  |  |  |
| O=C(O)c1ccc(NCCN2CCN(c3cc4c(cc3F)c(=O)c(C(=O)O)cn4C3CC3)CC2)cc1 | 2 µM | 1 µM | 1 µM | 2 µM (≈ 0.989 µg/mL) | 1 (≈ 0.495 µg/mL) | 2 µM | 1 (≈ 0.495 µg/mL) | 16.1 (≈ 7.96 µg/mL) |  |  |  |  |  |  |
| O=C(O)CC1(CNCN2CCN(c3cc4c(cc3F)c(=O)c(C(=O)O)cn4C3CC3)CC2)CCCCC1 |  | 7.7 µM | 7.7 µM | 15.5 µM (≈ 7.98 µg/mL) | 15.5 (≈ 7.98 µg/mL) | 62.1 µM | 15.5 (≈ 7.98 µg/mL) |  |  |  | 62.1 µM |  |  |  |
| O=C(O)c1cn(C2CC2)c2cc(N3CCNCC3)c(F)cc2c1=O [CIPROFLOXACIN] | 8 µg/mL |  |  |  |  | 8 µg/mL |  |  |  |  |  |  |  |  |
| NNC(=O)c1ccncc1 | inactive |  |  |  |  | inactive |  |  | inactive | inactive |  |  |  |  |
| NS(=O)(=O)c1ccc(NCN2CCN(c3cc4c(cc3F)c(=O)c(C(=O)O)cn4C3CC3)CC2)cc1 | 0.9 µM | 7.7 µM | 7.7 µM | 1.9 µM (≈ 0.98 µg/mL) | 1.9 (≈ 0.98 µg/mL) | 0.9 µM | 1.9 (≈ 0.98 µg/mL) | 7.7 (≈ 3.97 µg/mL) |  |  | 7.7 µM |  |  |  |
| O=C(NNCN1CCN(c2cc3c(cc2F)c(=O)c(C(=O)O)cn3C2CC2)CC1)c1ccncc1 | 4.1 µM | 33.2 µM | 33.2 µM | 7.7 µM (≈ 3.7 µg/mL) | 7.7 (≈ 3.7 µg/mL) | 7.7 µM | 7.7 (≈ 3.7 µg/mL) | 2 (≈ 0.961 µg/mL) |  |  | 8.3 µM |  |  |  |
| O=C(NNCCN1CCN(c2cc3c(cc2F)c(=O)c(C(=O)O)cn3C2CC2)CC1)c1ccncc1 | 1 µM | 8 µM | 8 µM | 4 µM (≈ 1.98 µg/mL) | 4 (≈ 1.98 µg/mL) | 1 µM | 4 (≈ 1.98 µg/mL) | 4 (≈ 1.98 µg/mL) |  |  | 8 µM |  |  |  |
| Nc1ccc(C(=O)O)cc1 | inactive |  |  |  |  | inactive |  |  | inactive | inactive |  |  |  |  |
| O=C(NNCN1CCNCC1)c1ccncc1 | inactive |  |  | inactive |  | inactive |  |  | inactive | inactive |  |  |  |  |
| O=C(O)c1ccc(NCN2CCN(c3cc4c(cc3F)c(=O)c(C(=O)O)cn4C3CC3)CC2)cc1 | 16.6 µM | 8.3 µM | 8.3 µM | 16.6 µM (≈ 7.98 µg/mL) | 8.3 (≈ 3.99 µg/mL) | 16.6 µM | 8.3 (≈ 3.99 µg/mL) | 66.5 (≈ 32 µg/mL) |  |  | 8.3 µM |  |  |  |
| C=CC1=C(C(=O)O)N2C(=O)[C@@H](NC(=O)/C(=N\OCC(=O)O)c3csc(N)n3)[C@H]2SC1 [CEFIXIME] |  | 0.75 µg/mL | 0.5 µg/mL |  | 0.06 (≈ 0.0272 µg/mL) | 0.06 µM | 0.06 (≈ 0.0272 µg/mL) |  |  |  | 0.25 µg/mL |  |  |  |
| CC[C@H]1OC(=O)[C@H](C)[C@@H](O[C@H]2C[C@@](C)(OC)[C@@H](O)[C@H](C)O2)[C@H](C)[C@@H](O[C@@H]2O[C@H](C)C[C@H](N(C)C)[C@H]2O)[C@](C)(O)C[C@@H](C)/C(=N\OCOCCOC)[C@H](C)[C@@H](O)[C@]1(C)O [ROXITHROMYCIN] | 0.039 µM |  |  |  |  |  |  |  |  |  |  |  |  |  |
| NS(=O)(=O)c1ccc(NCCN2CCN(c3cc4c(cc3F)c(=O)c(C(=O)O)cn4C3CC3)CC2)cc1 | 3.7 µM | 7.5 µM | 7.5 µM | 7.5 µM (≈ 3.97 µg/mL) | 7.5 (≈ 3.97 µg/mL) | 3.7 µM | 7.5 (≈ 3.97 µg/mL) | 3.7 (≈ 1.96 µg/mL) |  |  | 3.7 µM |  |  |  |
| COc1nc(NNC(=O)c2ccncc2)nc(N2CCNCC2)n1 | 49.2 µM |  |  | 197 µM (≈ 65 µg/mL) | 98.4 (≈ 32.5 µg/mL) | 49.2 µM | 98.4 (≈ 32.5 µg/mL) |  |  |  |  |  |  |  |
| COc1cc(Cc2cnc(N)nc2N)cc(OC)c1OCCN1CCN(c2cc3c(cc2F)c(=O)c(C(=O)O)cn3C2CC2)CC1 |  |  |  |  |  |  |  |  |  |  |  | 0.5 (≈ 0.789 µM) | 1 (≈ 1.58 µM) | 0.5 (≈ 0.789 µM) |
| O=C(O)CC1(CNCN2CCNCC2)CCCCC1 | 119 µM |  |  | 238 µM (≈ 64 µg/mL) | 238 (≈ 64 µg/mL) | 119 µM | 238 (≈ 64 µg/mL) |  |  |  |  |  |  |  |
| NS(=O)(=O)c1ccc(NCN2CCNCC2)cc1 | inactive |  |  | inactive |  | inactive |  |  | inactive | inactive |  |  |  |  |
| NCC1(CC(=O)O)CCCCC1 | inactive |  |  |  |  | inactive |  |  | inactive | inactive |  |  |  |  |
| NS(=O)(=O)c1ccc(NC(=O)CC2(CNCN3CCN(c4cc5c(cc4F)c(=O)c(C(=O)O)cn5C4CC4)CC3)CCCCC2)cc1 | 1.4 µM | 0.74 µM | 0.74 µM | 0.7 µM (≈ 0.468 µg/mL) | 0.7 (≈ 0.468 µg/mL) | 1.4 µM | 0.7 (≈ 0.468 µg/mL) | 0.74 (≈ 0.495 µg/mL) |  |  |  |  |  |  |

Reference: ChEMBL document CHEMBL4400526, “Design, synthesis and anti-bacterial studies of piperazine derivatives against drug resistant bacteria” (2019)
